From patent US8623821B2, “Zymogen activators” (Genentech, Inc., priority 2011, dated 2014)
Each block holds one compound with its values, some of them ahead of it. Where a SMILES comes first, the peptide text is derived from it. Bridges are numbered along the chain shown (N, C = ends). Where no end group is shown, it is not given here.

What was measured:
[1] = molecular target: zymogen-like pro-MSP β-chain (zMSP β); assay: Activation of zMSP β binding to RON; details: activation of zMSP β to bind RON
Experimental: The phage approach was also tested against pro-Macrophage Stimulating Protein (pro-MSP), another plasminogen-related growth factor, which, following proteolytic cleavage, signals through the RON receptor, having important roles in inflammation and cancer. Using a new cyclic library based on ZAP.03 (ZAPtide3 Library) and the described selection method a ZAPtide was discovered, ZAP3.2 that was specific for activating the zymogen-like pro-MSP β-chain (zMSP β) to bind RON with an AC50 of 134 μM.

Peptide solubility = type: physicochemical
prethrombin-2 = molecular target: T1, prethrombin-2 (Homo sapiens, UniProt P00734); assay: Zymogen serine protease activity assay (Ile-Pro-Arg-pNA hydrolysis); type: biochemical; details: 100 nM prethrombin-2, 2 mM Ile-Pro-Arg-pNA, peptide titration
T1 construct: Zymogen serine proteases prethrombin-2 and Protein C were purchased from Haematologic Technologies, Inc; purchased Haematologic Technologies, Inc. (Essex Junction, Vt.)
Experimental: (§1) Zymogen serine proteases prethrombin-2 and Protein C were purchased from Haematologic Technologies, Inc. (Essex Junction, Vt.). Kinetic assays were carried out in 20 mM Hepes, 150 mM NaCl, 5 mM CaCl2, 0.01% Triton X-100, pH 7.2. All reactions contained 100 nM of enzyme plus 2 mM Ile-Pro-Arg-pNA substrate. IVGG.147A was titrated and the initial rates of substrate hydrolysis were measured in clear bottom 96-well plates using 405 nm absorbance on a SpectraMax Plus (Molecular Devices, Inc.).
(§2) The IVGG.14 peptide activator of pro-HGF took advantage of the canonical trypsin-like activation mechanism in order to allosterically activate binding of the serine protease-like domain within pro-HGF to Met. Given this activation mechanism is highly conserved among zymogens of the trypsin-like family of serine proteases and the fact that these proteins share a high degree of structural homology within the serine protease-like domains as well as the activation pockets, ZAPs for pro-HGF were analyzed for ability allosterically activate other zymogen serine proteases.

Protein C = molecular target: T2, Protein C (Homo sapiens, UniProt P04070); assay: as above; type: biochemical; details: 100 nM Protein C, 2 mM Ile-Pro-Arg-pNA, peptide titration
T2 construct: purchased Haematologic Technologies, Inc. (Essex Junction, Vt.)
T2 sequence (P04070 19-461 limits assumed): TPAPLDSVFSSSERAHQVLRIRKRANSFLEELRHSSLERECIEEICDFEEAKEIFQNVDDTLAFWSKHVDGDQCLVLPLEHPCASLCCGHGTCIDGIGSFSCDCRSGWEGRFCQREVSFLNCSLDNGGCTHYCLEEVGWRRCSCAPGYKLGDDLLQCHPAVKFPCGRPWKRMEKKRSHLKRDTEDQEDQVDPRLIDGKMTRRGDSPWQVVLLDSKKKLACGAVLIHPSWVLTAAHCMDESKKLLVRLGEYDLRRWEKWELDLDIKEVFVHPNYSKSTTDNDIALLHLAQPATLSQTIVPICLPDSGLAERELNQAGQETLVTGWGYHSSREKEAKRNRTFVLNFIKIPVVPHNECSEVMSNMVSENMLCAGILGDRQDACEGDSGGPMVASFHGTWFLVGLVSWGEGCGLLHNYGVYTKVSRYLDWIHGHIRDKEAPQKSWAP
Experimental: as §1, §2

scHGF [2] = molecular target: T3, scHGF (Homo sapiens, UniProt P14210, R494E); assay: BxPC-3 cell survival assay, peptide titrations in the presence of scHGF; type: cell-based; set-up: Full-length recombinant HGF proteins were expressed in 1-liter fermentation cultures of Chinese hamster ovary (CHO) cells; made in house; host or cells: CHO cells (scHGF); details: BxPC-3 cells, serum starvation, 72 h, alamar Blue; read-out: EC50 of activation of scHGF, cell survival
T3 sequence (P14210 32-728 R494E): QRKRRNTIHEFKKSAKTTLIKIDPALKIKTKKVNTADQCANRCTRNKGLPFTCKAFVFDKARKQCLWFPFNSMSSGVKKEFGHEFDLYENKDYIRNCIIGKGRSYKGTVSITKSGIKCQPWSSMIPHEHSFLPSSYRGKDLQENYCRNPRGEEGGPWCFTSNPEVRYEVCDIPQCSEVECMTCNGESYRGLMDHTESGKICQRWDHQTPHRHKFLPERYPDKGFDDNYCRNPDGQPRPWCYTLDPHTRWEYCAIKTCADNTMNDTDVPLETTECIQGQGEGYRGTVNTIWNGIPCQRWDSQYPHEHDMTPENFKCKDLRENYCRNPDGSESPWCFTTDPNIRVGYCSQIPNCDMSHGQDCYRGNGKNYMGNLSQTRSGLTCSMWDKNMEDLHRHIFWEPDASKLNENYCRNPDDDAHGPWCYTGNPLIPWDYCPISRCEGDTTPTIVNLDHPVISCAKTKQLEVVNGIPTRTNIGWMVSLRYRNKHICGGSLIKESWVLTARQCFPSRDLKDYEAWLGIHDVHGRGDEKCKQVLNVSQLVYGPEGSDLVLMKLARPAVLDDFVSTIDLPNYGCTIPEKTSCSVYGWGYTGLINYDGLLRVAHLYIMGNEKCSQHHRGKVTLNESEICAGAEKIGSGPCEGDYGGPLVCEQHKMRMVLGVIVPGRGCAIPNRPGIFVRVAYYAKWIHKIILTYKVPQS
Experimental: BxPC-3 cells were obtained from ATCC and maintained in cell culture medium (RPMI, 10% FBS (Sigma), 50 U/ml penicillin/50 μg/ml streptomycin, 2 mM glutamine). For the survival assay, cells were plated at 10,000 cells/well in 96 well tissue culture plates (Falcon 353072) in 50 μl assay diluent (RPMI, 0.1% BSA (Sigma) 50 U/ml penicillin/50 μg/ml streptomycin, 2 mM glutamine). Cells were allowed to attach for 1-2 h in a 37° C. CO2 incubator. Human HGF proteins (HGF, scHGF or scHGF plus peptide titrations) were pre-incubated at room temperature in assay diluent. HGF/peptide mixtures were added to cells in microtiter plates in triplicate at 50 μl per well and plates were incubated at 37° C. in a CO2 incubator. Final concentrations of HGF variants were 400 ng/ml and peptide concentrations were titrated accordingly. After 72 h, 25 μl alamar Blue (Serotec, BUF012B) was added to each well and incubate an additional 2 h at 37° C. in a CO2 incubator. Plates were agitated vigorously for 10 min at room temperature, and fluorescence was read at 530-590 nm in a fluorescent plate reader.
Using Bx-PC3 cells, peptide titrations in the presence of scHGF were performed and observed robust activation was seen of scHGF signaling through Met, which reached levels equivalent HGF-induced signaling.
(§3) Cellular assays were used to address whether the optimized ZAPtides act as allosteric activators of pro-HGF and stimulate Met signaling in biologically relevant settings of cell survival and migration. […] Importantly, ZAPtides required the presence of scHGF as well as induced […] cell survival that was antagonized by an HGF-blocking anti-Met antibody, each confirming Met pathway selectivity.

scHGF [3] = molecular target: T3, scHGF; assay: In vitro wound closure assay, HeLa cell migration in the presence of scHGF; type: cell-based; set-up: Full-length recombinant HGF proteins were expressed in 1-liter fermentation cultures of Chinese hamster ovary (CHO) cells; made in house; host or cells: CHO cells (scHGF); Met is endogenous in HeLa cells; details: HeLa cells, scHGF present, read-out: EC50 of HeLa cell migration response
Excerpt: as §3

AC50 [1]: 134 µM
Compound: ZAP3.2: ZAPtide from the cyclic ZAPtide3 Library based on ZAP.03, activating zymogen-like pro-MSP β-chain (zMSP β) to bind RON (IVGGEPVWYVW; not fully specified)

solubility, in words (Peptide solubility): exceptionally soluble
initial rate of substrate hydrolysis (Vi) (prethrombin-2): significantly increased
initial rate of substrate hydrolysis (Vi) (Protein C): significantly increased
Compound: CC[C@H](C)[C@H](N)C(=O)N[C@H](C(=O)NCC(=O)NCC(=O)N[C@@H](Cc1ccc(O)cc1)C(=O)N1CCC[C@H]1C(=O)N[C@@H](C)C(=O)N[C@@H](Cc1c[nH]c2ccccc12)C(=O)N[C@@H](CCSC)C(=O)N[C@@H](CC(=O)O)C(=O)N[C@H](C(N)=O)C(C)C)C(C)C [IVGG.147A, I V G G Y P A W M D V] (H-IVGGYPAWMDV-NH2; N-terminus assumed)

EC50 (scHGF [3]): 60 nM
Compound: CC[C@H](C)[C@H](N)C(=O)N[C@H](C(=O)NCC(=O)NCC(=O)N[C@H]1CSSC[C@@H](C(=O)N[C@H](C(N)=O)[C@@H](C)CC)NC(=O)[C@H](CCC(=O)O)NC(=O)[C@H](CCC(=O)O)NC(=O)[C@H](CCCNC(=N)N)NC(=O)[C@H](CC(=O)O)NC(=O)[C@H](CCSC)NC(=O)[C@H](Cc2c[nH]c3ccccc23)NC(=O)[C@H](Cc2ccc(O)cc2)NC(=O)[C@@H]2CCCN2C1=O)[C@@H](C)CC [ZAP.03, I I G G C P Y W M D R E E C I] (H-IIGGCPYWMDREECI-NH2; disulfide 5-14)
EC50 (scHGF [2]): 400 nM
